The source of these data is publication PMC10424183, “Determination of Ligand-Binding Affinity (Kd) Using Transverse Relaxation Rate (R2) in the Ligand-Observed ^1H NMR Experiment and Applications to Fragment-Based Drug Discovery” (Journal of Medicinal Chemistry, 2023).

The target in assay [1] is T1, BCL6 BTB (Homo sapiens, UniProt P41182).
T1 construct: made in house
Description: R2KD ligand-observed 1H NMR assay (Kd from transverse relaxation rate R2). The class given is binding. As for the experimental part: (§1) Four aqueous stock solutions were prepared in Eppendorf Safe-Lock tubes (Cat no. 0030120094) by manual pipetting: (1) ligand aqueous stock solution was prepared by adding 50 mM ligand DMSO-d6 solution to aqueous buffer; (2) dimethyl sulfoxide (DMSO) aqueous stock solution was prepared by adding the same volume of DMSO-d6 as ligand DMSO-d6 solution to aqueous buffer; (3) protein aqueous stock solution was prepared by adding protein solution to aqueous buffer; and (4) aqueous solution was the buffer used in the assay.
Samples were prepared on a Bruker SamplePro-Tube liquid handler by mixing different volume of the four aqueous stocks in 96-well microplates (Greiner 650201) and then transferred to 3 mm NMR tubes (Figure 2). 10 samples were prepared: samples 1–8 containing increasing ligand concentration (maintaining constant protein concentration); sample 9 and 10 containing only ligands at two different concentrations (protein absent). These two samples served as control samples to obtain the R2 values of free ligand. The final percentage of DMSO-d6 in all samples were identical to minimize possible impacts of DMSO-d6.
The R2 values of four aromatic ^1H-NMR signals (Figure 3B) were experimentally determined (Figure 3C) and (R2,obs – R2F) * LT values were calculated using Excel and used as y-axis values in Prism, while ligand concentrations were plotted as the x-axis values (Figure 3D). All four NMR peaks were used to fit a global Kd with non-linear regression using a customized equation (see Experimental Section), while α values were fitted as an individual parameter for each peak (Figure 3E) as α values differ depending on the individual proton’s environment. While it was possible to fit Kd values using individual NMR peaks and then average the values (Figure 3F), we found using a global fitting algorithm increased robustness of curve fitting and better accommodated outliers in the data. The goodness of fit was judged by 95% confidence interval (CI) (profile likelihood) values and R squared value. The global Kd obtained here is close to the Ki value (54 vs 50 μM) although from our accuracy study, the differences can be larger (see section “Assay Accuracy”).
NMR data were collected at 298 K on a Bruker AVANCE NEO 600 MHz spectrometer, equipped with 5 mm TCI CryoProbe using Bruker Topspin 4.0. The T2 relaxation experiment was acquired using pulse program CPMG with 3-9-19 pulse sequence with gradients incorporated to suppress the water signal.[22] Extra water suppression was achieved by adding presaturation during D1. The spin-echo period (delay-180°-delay) was set to 1 msec (d20 is 500 μs), and the relaxation delay (d1) was set to 10 s. The pseudo-2D experiment contained nine slices with spin-echo period repeated the following times: 4, 20, 100, 200, 300, 500, 700, 1000, and 2000. The T2 relaxation experiment was processed using MestReNova 14.1, and Data Analysis Module of MestReNova was used to obtain integrals of individual ^1H-NMR signals, which were used to calculate R2 with equation I = I0exp (−tR2).
Nonlinear regression analysis was carried out using GraphPad Prism 9.2.0. Equation 12 was defined in user-defined equations as: Y = 0.5α*((X + Kd + P) −sqrt((sqr(X + Kd + P)) – 4*P*X)) where Y was calculated from eq 13 and X is the total ligand concentration. Three parameters: P, α, and Kd were in the equation with the initial value set at 1. In the default constraints setting, P was “constant equal to” the total protein concentration, Kd was “shared value for all data sets”, and α was “must be greater than […]”. CIs of parameters was calculated at 95% level using Asymmetrical (Profile-likelihood) CI.

The target of assay [2] is T1, BCL6 BTB. The arrangement: method as in PMID 36329085. The note with it: SPR; read-out: Kd value from SPR assay (printed in the Ki column, footnote a); cited from earlier work.
For assay [3], the target named is T2, CRBN/DDB1 complex (Homo sapiens, UniProt Q96SW2).
T2 construct: made in house
T2 sequence (Q96SW2 40-442 limits assumed, species assumed, one chain of several): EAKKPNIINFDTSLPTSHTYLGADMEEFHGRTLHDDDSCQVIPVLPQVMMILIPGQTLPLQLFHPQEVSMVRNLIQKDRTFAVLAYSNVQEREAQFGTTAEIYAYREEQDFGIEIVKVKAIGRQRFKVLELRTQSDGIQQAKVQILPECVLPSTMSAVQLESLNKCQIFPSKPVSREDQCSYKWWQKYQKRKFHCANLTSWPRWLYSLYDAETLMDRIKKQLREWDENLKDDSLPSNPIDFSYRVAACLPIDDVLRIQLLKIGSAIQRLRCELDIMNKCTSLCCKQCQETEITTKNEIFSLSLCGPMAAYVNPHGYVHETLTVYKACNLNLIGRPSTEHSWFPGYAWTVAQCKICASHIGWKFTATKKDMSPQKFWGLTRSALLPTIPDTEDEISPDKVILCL
Description: R2 values of fragment hits at two ligand concentrations (preliminary ranking). Type of assay: binding. The note with it: 2 μM CRBN/DDB1 complex. The procedure:
(§2) Here, we present how we used the R2KD assay to triage fragment hits against the CRBN/DDB1 complex. The CRBN/DDB1 complex is part of the E3 ligase system, with its thalidomide-binding domain (TBD) pocket critical for recruiting its substrate protein.[20] […] The R2 values of these fragments were measured at two ligand concentrations (200 and 50 μM) against 2 μM of the CRBN/DDB1 complex. This enabled preliminary ranking of hits. The hits with larger R2 differences rank higher. […] We also determined IC50 of the top 10 fragments using a FP based biochemical assay.[17]
(§3) The T2 relaxation experiment was acquired using pulse program CPMG with 3-9-19 pulse sequence with gradients incorporated to suppress the water signal.[22] Extra water suppression was achieved by adding presaturation during D1. The spin-echo period (delay-180°-delay) was set to 1 msec (d20 is 500 μs), and the relaxation delay (d1) was set to 10 s. The pseudo-2D experiment contained nine slices with spin-echo period repeated the following times: 4, 20, 100, 200, 300, 500, 700, 1000, and 2000.

For assay [4], the target named is T2, CRBN/DDB1 complex. Description: FP based biochemical assay. The class given is binding. The settings on record: top 10 fragments. The source says: To determine the accuracy of Kd measured using the R2KD assay, we tested seven small molecule ligands (Figure 4) against three protein targets (BCL6, CRBN/DDB1 complex, and ERAP1) and compared their Kd values from the R2KD assay with known Ki values (Table 1) obtained in biochemical binding assays[15],[17],[18] or Kd value from the SPR binding assay.[19] We found good agreements between the Kd values and the Ki values, with most of them less than two-fold difference from those determined from biochemical or biophysical assays. […] We found the assay setup to be simple and positive controls unnecessary, making the approach suitable for new and challenging targets.
Here, we present how we used the R2KD assay to triage fragment hits against the CRBN/DDB1 complex. The CRBN/DDB1 complex is part of the E3 ligase system, with its thalidomide-binding domain (TBD) pocket critical for recruiting its substrate protein.[20] A fragment library, composed of around 1000 compounds, was screened using R2 relaxation edited ^1H-NMR experiments, with 19 fragments subsequently identified as competitive hits for the TBD pocket. The R2 values of these fragments were measured at two ligand concentrations (200 and 50 μM) against 2 μM of the CRBN/DDB1 complex. This enabled preliminary ranking of hits. The hits with larger R2 differences rank higher. […] We then measured the Kd values of the top 10 fragments using R2KD assay and confirmed the ranking order (Table 2). We also determined IC50 of the top 10 fragments using a FP based biochemical assay.[17]

In assay [5] the target is T2, CRBN/DDB1 complex. The note with it: known Ki from biochemical binding assay, Δ39CRBN/ΔBPBDDB1 complex; cited from earlier work.
Assay [6] addresses T2, CRBN/DDB1 complex. Kind of assay: R2KD ligand-observed 1H NMR assay (Kd from transverse relaxation rate R2). The class given is binding. As for the experimental part:
10 samples were prepared: samples 1–8 containing increasing ligand concentration (maintaining constant protein concentration); sample 9 and 10 containing only ligands at two different concentrations (protein absent). These two samples served as control samples to obtain the R2 values of free ligand. The final percentage of DMSO-d6 in all samples were identical to minimize possible impacts of DMSO-d6.
as §2, §3
Nonlinear regression analysis was carried out using GraphPad Prism 9.2.0. […] Three parameters: P, α, and Kd were in the equation with the initial value set at 1. […] CIs of parameters was calculated at 95% level using Asymmetrical (Profile-likelihood) CI.

The next assay concerns the target BCL6 BTB domain. Also on record: method as in PMID 35657291. The settings on record: known Ki from TR-FRET binding assay; cited from earlier work.
The target in assay [7] is T3, ERAP1 (Homo sapiens, UniProt Q9NZ08).
T3 construct: made in house
T3 sequence (Q9NZ08 whole entry, species assumed): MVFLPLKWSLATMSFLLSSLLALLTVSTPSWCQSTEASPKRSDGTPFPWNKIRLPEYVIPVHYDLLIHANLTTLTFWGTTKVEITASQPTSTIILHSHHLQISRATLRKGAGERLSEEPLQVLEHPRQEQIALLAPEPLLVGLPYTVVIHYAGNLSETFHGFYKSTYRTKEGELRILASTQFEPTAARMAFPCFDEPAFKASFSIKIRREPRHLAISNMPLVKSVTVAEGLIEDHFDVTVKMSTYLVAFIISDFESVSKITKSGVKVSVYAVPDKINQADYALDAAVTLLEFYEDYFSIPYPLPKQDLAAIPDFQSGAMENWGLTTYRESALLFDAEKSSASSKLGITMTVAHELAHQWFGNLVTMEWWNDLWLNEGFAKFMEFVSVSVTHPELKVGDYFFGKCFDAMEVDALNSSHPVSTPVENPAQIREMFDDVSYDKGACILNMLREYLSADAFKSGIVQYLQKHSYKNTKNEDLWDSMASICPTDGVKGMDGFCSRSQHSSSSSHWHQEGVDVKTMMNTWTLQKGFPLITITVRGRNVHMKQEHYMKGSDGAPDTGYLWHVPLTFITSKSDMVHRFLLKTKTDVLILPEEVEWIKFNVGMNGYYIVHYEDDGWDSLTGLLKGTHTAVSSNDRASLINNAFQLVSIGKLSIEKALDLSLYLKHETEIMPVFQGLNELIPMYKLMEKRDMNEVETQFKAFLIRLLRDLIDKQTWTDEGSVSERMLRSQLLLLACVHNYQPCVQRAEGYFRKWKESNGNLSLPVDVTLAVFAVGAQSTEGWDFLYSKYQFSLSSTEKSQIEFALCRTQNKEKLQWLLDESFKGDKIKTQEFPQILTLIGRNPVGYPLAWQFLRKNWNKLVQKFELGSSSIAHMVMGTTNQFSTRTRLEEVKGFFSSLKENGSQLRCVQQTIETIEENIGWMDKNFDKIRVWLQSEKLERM
Description: R2KD ligand-observed 1H NMR assay (Kd from transverse relaxation rate R2). Type of assay: binding. The note with it: repeated three times (average). As for the experimental part: as §1
Samples were prepared on a Bruker SamplePro-Tube liquid handler by mixing different volume of the four aqueous stocks in 96-well microplates (Greiner 650201) and then transferred to 3 mm NMR tubes (Figure 2). 10 samples were prepared: samples 1–8 containing increasing ligand concentration (maintaining constant protein concentration); sample 9 and 10 containing only ligands at two different concentrations (protein absent). These two samples served as control samples to obtain the R2 values of free ligand. […]
Nonlinear regression analysis was carried out using GraphPad Prism 9.2.0. Equation 12 was defined in user-defined equations as: Y = 0.5α*((X + Kd + P) −sqrt((sqr(X + Kd + P)) – 4*P*X)) where Y was calculated from eq 13 and X is the total ligand concentration. […] CIs of parameters was calculated at 95% level using Asymmetrical (Profile-likelihood) CI.

The target in assay [8] is T3, ERAP1. The arrangement: method as in PMID 31841350. The note with it: known Ki from biochemical binding assay; cited from earlier work.
[9] abbreviates: R2KD assay, repeated three times (average), read-out: Kd.

Like-named read-outs stand apart in the source and are kept apart here.

In the case of `Cc1cc(Nc2ccc(F)cc2)n2ncnc2n1` [CCT040036], the Kd at BCL6 BTB [1] (R2KD assay upper detection limit example, read-out: largest Kd determined accurately) is around 1000 µM; at BCL6 BTB [1] (setting [9]), 1050 µM; at BCL6 BTB [1] (single experiment, four peaks, global Kd fitting, unit inferred, read-out: Kd, global (shared) fit) it was 905 µM; at BCL6 BTB [2], 1500 µM.
In general, IC50 refers to the concentration that gives 50% inhibition. The Ki is the dissociation constant of the complex between target and ligand, obtained from inhibition or displacement. Take `COC(=O)c1ccc2c(c1)NC(=O)CO2` [CCT240569]: the “average R2, compound at 50 μM” value on CRBN/DDB1 complex [3] (50 μM ligand) was 7.2. For the same compound, the “average R2, compound at 200 μM” value at CRBN/DDB1 complex [3] (200 μM ligand) is given as 2.6. In addition, the “average R2, differences” value on CRBN/DDB1 complex [3] (R2 at 50 μM minus R2 at 200 μM) was 4.6. Also, at CRBN/DDB1 complex [4], the half-inhibitory concentration (IC50) came to 153 µM. The inhibition constant Ki on CRBN/DDB1 complex [5] was 140 µM. Also, the Kd amounted to 88 µM at CRBN/DDB1 complex [6] (R2KD assay, Δ39CRBN/ΔBPBDDB1 complex, repeated three times (average), read-out: Kd) and 72 µM at CRBN/DDB1 complex [6] (fragment hit triage, top 10 fragments, read-out: R2KD assay Kd).
In the case of `Cc1nccc(Nc2cnn(CCO)c2)c1C#N` [CCT365133], the Kd at BCL6 BTB [1] (5 μM BCL6, average of Peaks 1-4, unit inferred, read-out: Kd, average of individual peak fits) came to 61 µM; at BCL6 BTB [1] (5 μM BCL6, individual peak fit, unit inferred, read-out: Kd fitted using individual peak, Peak 1), 55 µM; on BCL6 BTB [1] (5 μM BCL6, individual peak fit, unit inferred, read-out: Kd fitted using individual peak, Peak 2) it was 53 µM; at BCL6 BTB [1] (5 μM BCL6, individual peak fit, unit inferred, read-out: Kd fitted using individual peak, Peak 3), 78 µM; at BCL6 BTB [1] (5 μM BCL6, individual peak fit, unit inferred, read-out: Kd fitted using individual peak, Peak 4), 56 µM; at BCL6 BTB [1] (5 μM protein, peak 3, read-out: Kd at 5 μM protein), 70 µM. Further, the Kd on BCL6 BTB [1] (25 μM protein, peak 3, read-out: Kd at 25 μM protein) was 58 µM; on BCL6 BTB [1] (35 μM protein, peak 3, read-out: Kd at 35 μM protein), 71 µM; on BCL6 BTB [1] (setting [9]) it was 51 µM; on BCL6 BTB [1] (ligand concentration increasing to 500 μM, no solubility limit, read-out: Kd, data set B), 68 µM; at BCL6 BTB [1] (simplified graphical presentation, unit inferred, read-out: KD, curve fitting using calculated bound ligand concentration [PL]) it was 57 µM; on BCL6 BTB [1] (single experiment, 5 μM BCL6, ligand 50-500 μM, four aromatic peaks, global Kd fitting, read-out: Kd, global (shared) fit) it was 54 µM. Besides, the “Kd of data set A relative to data set B” value at BCL6 BTB [1] (limited solubility mimic versus full concentration series) was “around 10 fold”. Besides, the inhibition constant (Ki) at BCL6 BTB domain is 50 µM.
As for `CC[C@H](O)Cn1c(=O)n(C)c2ccc(Nc3ccnc(Cl)c3C#N)cc21` [CCT367090], the Kd on BCL6 BTB [1] (setting [9]) came to 7 µM. For the same compound, at BCL6 BTB domain, the Ki was 4 µM.
On ERAP1 [7], `O=C(O)c1cccc(S(=O)(=O)Nc2ccccc2N2CCCCC2)c1` [CCT369304] displayed a Kd of 196 µM. The Ki on ERAP1 [8] was 33 µM.
